Results: patent US20050080113A1, “Medicinal compositions” (priority 2001, published 2005)

Row | Compound | melting point [°C]
1 | CCc1nc(-c2ccc(F)c(C)c2)c(-c2ccnc(NC(C)=O)c2)s1 [H 82-4, N-[4 [2 ethyl-4 (4 fluoro-3 methylphenyl)-1,3 thiazol-5 yl]-2 pyridyl]acetamide] | 142 to 143
2 | CCc1nc(-c2cccc(F)c2)c(-c2ccnc(NC(C)=O)c2)s1 [H 82-5, N-[4 [2 ethyl-4 (3-fluorophenyl)-1,3 thiazol-5 yl]-2 pyridyl]acetamide] | 141 to 142
3 | Cc1cccc(-c2nc(-c3ccc(S(C)(=O)=O)cc3)sc2-c2ccnc(F)c2)c1 [H 58-4, 5-(2-fluoro-4-pyridyl)-4-(3-methylphenyl)-2-(4-methylsulfonylphenyl)-1,3-thiazole] | 195 to 199
4 | Cc1cccc(-c2nc(N3CCNC3=O)sc2-c2ccnc(C)c2)c1 [H 66, 1 [4 (3 methylphenyl)-5 (2-methyl-4 pyridyl)-1,3 thiazol-2 yl]imidazolidin-2 one] | 200 to 201
5 | Cc1cccc(-c2nc(-c3ccc(S(C)(=O)=O)cc3)sc2-c2ccnc(NCC3CCCCC3)c2)c1 [H 37-3, N-cyclohexylmethyl-4 [4-(3 methylphenyl)-2 (4 methylsulfonylphenyl)-1,3 thiazol-5-yl]-2 pyridylamine] | 157 to 159
6 | CCc1cccc(-c2nc(CC)sc2-c2ccnc(NC(C)=O)c2)c1 [H 82-7, N-[4 [2 ethyl-4 (3-ethylphenyl)-1,3 thiazol-5 yl]-2 pyridyl]acetamide] | 112 to 113
7 | Cc1cccc(-c2ncsc2-c2ccnc(NC(=O)Cc3ccccc3)c2)c1 [L 68-6, N-[4 [4 (3 methylphenyl)-1,3 thiazol-5 yl]-2 pyridyl]phenylacetamide] | 135 to 136
8 | Cc1cccc(-c2nc(N(C)C(=O)c3cccnc3)sc2-c2ccnc(NC3CCCC3)c2)c1 [H 42-9, N-[5 (2 cyclopentylamino-4 pyridyl)-4 (3 methylphenyl)-1,3 thiazol-2 yl]N-methylnicotinamide] | 148 to 149
9 | Cc1cccc(-c2nc(NC(=O)c3ccc(C)nc3)sc2-c2ccnc(NC3CCCCC3)c2)c1 [H 46-1, N-[5 (2 cyclohexylamino-4-pyridyl)-4 (3 methylphenyl)-1,3 thiazol-2 yl]-6-methylnicotinamide] | 242 to 243
10 | Cc1cc(C)cc(-c2nc(NC(=O)Cc3ccccc3)sc2-c2ccncc2)c1 [23-196, N-[4 (3,5 dimethylphenyl)-5 (4 pyridyl)-1,3 thiazol-2 yl]-2-phenylacetamide] | 226 to 229
11 | CCC(=O)Nc1cc(-c2sc(C(C)OC(=O)c3ccccc3)nc2-c2cccc(Cl)c2)ccn1 (stereo not drawn) [H 102-6, 1 [4 (3 chlorophenyl)-5-(2 propionylamino-4 pyridyl)-1,3 thiazol-2 yl]ethyl benzoate] | 124 to 127
12 | Cc1cccc(-c2nc(-c3ccc(S(C)(=O)=O)cc3)sc2-c2ccnc(NCCCc3ccccc3)c2)c1 [D 21-6, N-[4-[4-(3-methylphenyl)-2-(4-methylsulfonylphenyl)-1,3-thiazol-5-yl]-2-pyridyl]-N-(3-phenylpropyl)amine] | 167 to 168
13 | CCC(=O)Nc1nc(-c2cc(C)cc(C)c2)c(-c2ccncc2)s1 [23-194, N-[4 (3,5 dimethylphenyl)-5 (4 pyridyl)-1,3 thiazol-2-yl]propionamide] | 291 to 293
14 | Cc1cccc(-c2nc(NC(=O)Nc3ccccc3)sc2-c2ccnc(NC3CCCC3)c2)c1 [H 53-3, N-[5 (2 cyclopentylamino-4 pyridyl)-4 (3 methylphenyl)-1,3 thiazol-2 yl]-N′-phenylurea] | 188 to 190
15 | CCc1nc(-c2cccc(C)c2)c(-c2ccnc(NC(=O)c3cccc(F)c3)c2)s1 [L 39-4, N-[4 [2 ethyl-4 (3-methylphenyl)-1,3 thiazol-5 yl]-2 pyridyl]-3 fluorobenzamide] | 101 to 102
16 | Cc1cccc(-c2nc(-c3ccc(S(C)(=O)=O)cc3)sc2-c2cc(C)nc(C)c2)c1 [H 58-2, 5 (2,6 dimethyl-4-pyridyl)-4 (3 methylphenyl)-2 (4 methylsulfonylphenyl)-1,3-thiazole] | 182 to 184
17 | CCc1nc(-c2cccc(Cl)c2)c(-c2ccnc(N)c2)s1 [H 20-1, 4 [2 ethyl-4 (3-chlorophenyl)-1,3 thiazol-5 yl]-2 pyridylamine] | 131 to 132
18 | Cc1cc(C)cc(-c2nc(N)sc2-c2ccncc2)c1 [23-133, [4 (3,5 dimethylphenyl)-5 (4 pyridyl)-1,3 thiazol-2 yl]amine] | 242 to 244
19 | CSc1ccc(-c2nc(-c3cccc(C)c3)c(-c3ccnc(NC(C)=O)c3)s2)cc1 [H 82-12, N-[4 [4 (3 methylphenyl)-2 [4 (methylthio)phenyl]-1,3 thiazol-5 yl]-2 pyridyl]acetamide] | 181 to 182
20 | Cc1cc(C)cc(-c2nc(NC(=O)c3ccncc3)sc2-c2ccncc2)c1 [Reference Example A 23-200, N-[4-(3,5-dimethylphenyl)-5-(4-pyridyl)-1,3-thiazol-2-yl]isonicotinamide] | 302 to 304
21 | COc1ccc(C(=O)Nc2nc(-c3cccc(C)c3)c(-c3ccnc(NC4CCCCC4)c3)s2)cn1 [H 48-1, N-[5 (2 cyclohexylamino-4-pyridyl)-4 (3 methylphenyl)-1,3 thiazol-2 yl]-6-methoxynicotinamide] | 191 to 192

Row | Compound | melting point [°C]
22 | CSc1ccc(-c2nc(-c3cccc(C)c3)c(-c3ccnc(NC(=O)c4ccccc4)c3)s2)cc1 [D 16-15, N-[4-[4-(3-methylphenyl)-2-(4-methylthiophenyl)-1,3-thiazol-5-yl]-2-pyridyl]benzamide] | 180 to 182
23 | CCC(=O)Nc1cc(-c2sc(C3CCNCC3)nc2-c2cccc(Cl)c2)ccn1.Cl.Cl | 202 to 203
24 | CCOC(=O)c1nc(-c2cccc(C)c2)c(-c2ccnc(C)c2)s1 [H 14-12, ethyl [4 (3-methylphenyl)-5 (2 methyl-4 pyridyl)-1,3 thiazol-2-yl]carboxylate] | 97 to 98
25 | CCc1nc(-c2cccc(Br)c2)c(-c2ccnc(N)c2)s1 [H 75-2, 4 [4 (3 bromophenyl)-2-ethyl-1,3 thiazol-5 yl]-2 pyridylamine] | 132 to 134
26 | CC(=O)Nc1cc(-c2sc(C(C)O)nc2-c2cccc(Cl)c2)ccn1 (stereo not drawn) [H 111-2, N-[4 [4 (3 chlorophenyl)-2-(1 hydroxyethyl)-1,3 thiazol-5 yl]-2 pyridyl]acetamide] | 142 to 145
27 | Cc1cccc(-c2nc(-c3ccccc3Cl)sc2-c2ccnc(NC(=O)CCc3ccccc3)c2)c1 [D 16-14, N-[4 [2 (2 chlorophenyl)-4 (3 methylphenyl)-1,3 thiazol-5 yl]-2 pyridyl]-3-phenylpropionamide] | 156 to 158
28 | CCc1nc(-c2ccccc2)c(-c2ccnc(NC(=O)Cc3ccccc3)c2)s1 [L 68-9, N-[4 (2 ethyl-4 phenyl-1,3-thiazol-5 yl)-2 pyridyl]phenylacetamide] | 162 to 163
29 | Cc1cccc(-c2nc(-c3ccc(S(C)(=O)=O)cc3)sc2-c2cc[n+]([O-])c(C)c2)c1 [H 68-1, 4 [4 (3 methylphenyl)-2-(4 methylsulfonylphenyl)-1,3 thiazol-5 yl]-2 methylpyridine N-oxide] | 197 to 198
30 | CONC(=O)Nc1nc(-c2cccc(C)c2)c(-c2ccnc(C)c2)s1 [H 63, N-methoxy-N′-[4 (3 methylphenyl)-5 (2 methyl-4 pyridyl)-1,3-thiazol-2 yl]urea] | 194 to 195
31 | CSCc1nc(-c2cccc(Cl)c2)c(-c2ccnc(N)c2)s1 [H 101-1, 4 [4 (3 chlorophenyl)-2-(methylthio)methyl-1,3 thiazol-5 yl]-2 pyridylamine] | 111 to 112
32 | Nc1nc(-c2ccc(F)cc2)c(-c2ccnc(F)c2)s1 [H 7-3, [4 (4 fluorophenyl)-5 (2-fluoro-4 pyridyl)-1,3 thiazol-2 yl]amine] | 243 to 245
33 | CCNC(=O)Nc1cc(-c2sc(CC)nc2-c2cccc(Cl)c2)ccn1 [H 109, N-[4 [4 (3 chlorophenyl)-2-ethyl-1,3 thiazol-5 yl]-2 pyridyl]-N′-ethyl-urea] | 177 to 180
34 | CCC(=O)Nc1cc(-c2sc(C(C)OC(=O)c3ccccc3)nc2-c2cccc(C)c2)ccn1 (stereo not drawn) [H 102-5, 1 [4 (3 methylphenyl)-5-(2 propionylamino-4 pyridyl)-1,3 thiazol-2 yl]ethyl benzoate] | 102 to 103
35 | CC(=O)Nc1cc(-c2sc(C(C)OC(=O)c3ccccc3)nc2-c2cccc(Cl)c2)ccn1 (stereo not drawn) [H 103-1, 1 [5 (2 acetylamino-4-pyridyl)-4 (3 chlorophenyl)-1,3 thiazol-2 yl]ethyl benzoate] | 152 to 154
36 | CCc1nc(-c2cccc(C)c2)c(-c2ccnc(NC(=O)c3ccc(C)cc3)c2)s1 [L 39-3, N-[4 [2 ethyl-4 (3-methylphenyl)-1,3 thiazol-5 yl]-2 pyridyl]-4 methylbenzamide] | 105 to 106
37 | CC(=O)Nc1nc(-c2ccc(C(C)(C)C)cc2)c(-c2ccncc2)s1 [23-137, N-[4 [4 (1,1 dimethylethyl)phenyl]-5 (4 pyridyl)-1,3 thiazol-2 yl]acetamide] | 280 to 281
38 | CCc1nc(-c2cccs2)c(-c2ccnc(N)c2)s1 [H 20-12, 4 [2 ethyl-4 (2 thienyl)-1,3 thiazol-5 yl]-2 pyridylamine] | 159 to 160
39 | CCc1nc(-c2cccc(OC)c2)c(-c2ccnc(NC(=O)Cc3ccccc3)c2)s1 [L 68-10, N-[4 [2 ethyl-4 (3-methoxyphenyl)-1,3 thiazol-5 yl]-2 pyridyl)phenylacetamide] | 128 to 129
40 | COc1ccc(-c2nc(NC(C)=O)sc2-c2ccnc(NC(C)=O)c2)cc1 [H 38, N-[5 (2 acetylamino-4 pyridyl)-4 (4 methoxyphenyl)-1,3-thiazol-2 yl]acetamide] | 262 to 264
41 | CCc1nc(-c2cccc(C)c2)c(-c2ccnc(NC(=O)c3cc(Cl)cc(Cl)c3)c2)s1 [L 39-6, 3,5 dichloro-N-[4 [2 ethyl-4 (3 methylphenyl)-1,3 thiazol-5 yl]-2 pyridyl]benzamide] | 77 to 78
42 | CC(=O)Nc1cc(-c2sc(C)nc2-c2cccc(Cl)c2)ccn1 [H 30-1, N-[4-[4-(3-chlorophenyl)-2-methyl-1,3-thiazol-5-yl]-2-pyridyl]acetamide] | 112 to 115
